Test results taken from PubChem BioAssay AID256 (DTP/NCI, 2004).
“And” between values parts separate entries of the source, which are not always exact repeats. Identical values can stand only once. Toxic doses and inconclusive results are not listed.

System: CD2F1 mice, L1210 leukemia ip, survival T/C
Assay: NCI In Vivo Anticancer Drug Screen. Data for tumor model L1210 Leukemia (intraperitoneal) in CD2F1 (CDF1) mice
Conditions: higher = longer survival
Summary of the method: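 Activity against a transplanted murine tumor was judged by comparing the compound group with a vehicle group. The outcome in the treated animals was divided by that in the controls.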

[1] = endpoint: mean survival time, dose: 100.0 mg/kg/injection, schedule: Q01DX009 (ip), vehicle: saline with Tween-80
[2] = endpoint: mean survival time, dose: 200.0 mg/kg/injection, schedule: Q01DX009 (ip), vehicle: saline with Tween-80
[3] = endpoint: mean survival time, dose: 100.0 mg/kg/injection, schedule: Q04DX003 (ip), vehicle: saline with Tween-80
[4] = endpoint: mean survival time, dose: 200.0 mg/kg/injection, schedule: Q04DX003 (ip), vehicle: saline with Tween-80
[5] = endpoint: mean survival time, dose: 400.0 mg/kg/injection, schedule: Q04DX003 (ip), vehicle: saline with Tween-80
[6] = endpoint: mean survival time, dose: 25.0 mg/kg/injection, schedule: Q01DX001 (ip), vehicle: saline with Tween-80
[7] = endpoint: mean survival time, dose: 50.0 mg/kg/injection, schedule: Q01DX001 (ip), vehicle: saline with Tween-80

Cc1ccccc1-n1c(O)c(N=Nc2ccccc2)c(=O)n(-c2ccccc2)c1=S
T/C (endpoint: mean survival time, dose: 50.0 mg/kg/injection, schedule: Q04DX003 (ip), vehicle: Klucel (hydroxypropylcellulose) (HPC)): 93 % of control
T/C (endpoint: mean survival time, dose: 100.0 mg/kg/injection, schedule: Q04DX003 (ip), vehicle: Klucel (hydroxypropylcellulose) (HPC)): 94 % of control
T/C (endpoint: mean survival time, dose: 200.0 mg/kg/injection, schedule: Q04DX003 (ip), vehicle: Klucel (hydroxypropylcellulose) (HPC)): 104 % of control

Nc1nc(N)c2nc(NCc3ccc(C(=O)NC(CCC(=O)O)C(=O)O)cc3)cnc2n1 (stereo not drawn)
T/C (endpoint: mean survival time, dose: 50.0 mg/kg/injection, schedule: Q01DX009 (ip), vehicle: saline): 103 % of control
T/C (endpoint: mean survival time, dose: 50.0 mg/kg/injection, schedule: Q04DX003 (ip), vehicle: saline): 97 % of control
T/C (endpoint: mean survival time, dose: 100.0 mg/kg/injection, schedule: Q01DX009 (ip), vehicle: saline): 103 % of control
T/C (endpoint: mean survival time, dose: 100.0 mg/kg/injection, schedule: Q04DX003 (ip), vehicle: saline): 96 % of control
T/C (endpoint: mean survival time, dose: 200.0 mg/kg/injection, schedule: Q01DX009 (ip), vehicle: saline): 116 % of control
T/C (endpoint: mean survival time, dose: 200.0 mg/kg/injection, schedule: Q04DX003 (ip), vehicle: saline): 96 % of control
T/C (endpoint: mean survival time, dose: 400.0 mg/kg/injection, schedule: Q04DX003 (ip), vehicle: saline): 100 % of control

CC1=N/C(=C/c2ccccc2)C(=O)O1
T/C [1]: 97 % of control
T/C [2]: 98 % of control
T/C (endpoint: mean survival time, dose: 400.0 mg/kg/injection, schedule: Q01DX009 (ip), vehicle: saline with Tween-80): 88 % of control

CCCCCCC(Sc1n[nH]c(=O)[nH]c1=O)C(=O)OCC (stereo not drawn)
T/C (endpoint: mean survival time, dose: 12.5 mg/kg/injection, schedule: Q01DX005 (ip), vehicle: distilled water + Tween-80): 97 % of control
T/C (endpoint: mean survival time, dose: 25.0 mg/kg/injection, schedule: Q01DX005 (ip), vehicle: distilled water + Tween-80): 102 % of control
T/C (endpoint: mean survival time, dose: 50.0 mg/kg/injection, schedule: Q01DX005 (ip), vehicle: distilled water + Tween-80): 102 % of control
T/C (endpoint: mean survival time, dose: 100.0 mg/kg/injection, schedule: Q01DX005 (ip), vehicle: distilled water + Tween-80): 96 % of control
T/C (endpoint: mean survival time, dose: 200.0 mg/kg/injection, schedule: Q01DX005 (ip), vehicle: distilled water + Tween-80): 97 % of control

CCOc1ccc(/C=C/c2cc[n+](C)cc2)cc1OC
T/C (endpoint: mean survival time, dose: 100.0 mg/kg/injection, schedule: Q01DX001 (ip), vehicle: saline): 103 % of control

NC(=O)c1ncnc2c1ncn2C1OC(CO)C(O)C1O (stereo not drawn)
T/C (endpoint: mean survival time, dose: 12.5 mg/kg/injection, schedule: Q01DX005 (ip), vehicle: water): 104 % of control and 102 % of control
T/C (endpoint: mean survival time, dose: 25.0 mg/kg/injection, schedule: Q01DX005 (ip), vehicle: water): 104 % of control and 97 % of control
T/C (endpoint: mean survival time, dose: 50.0 mg/kg/injection, schedule: Q01DX005 (ip), vehicle: water): 106 % of control and 96 % of control
T/C (endpoint: mean survival time, dose: 100.0 mg/kg/injection, schedule: Q01DX005 (ip), vehicle: water): 110 % of control and 100 % of control
T/C (endpoint: mean survival time, dose: 200.0 mg/kg/injection, schedule: Q01DX005 (ip), vehicle: water): 110 % of control and 96 % of control

CN(C)c1ccc(Nc2c3ccccc3nc3ccccc23)cc1
T/C (endpoint: mean survival time, dose: 120.0 mg/kg/injection, schedule: Q03HX040 (oral), vehicle: saline): 154 % of control
T/C (endpoint: mean survival time, dose: 150.0 mg/kg/injection, schedule: Q03HX008 (oral), vehicle: saline): 124 % of control
T/C (endpoint: mean survival time, dose: 300.0 mg/kg/injection, schedule: Q03HX016 (oral), vehicle: saline): 152 % of control
T/C (endpoint: median survival time, dose: 22.5 mg/kg/injection, schedule: Q01DX009 (ip), vehicle: saline): 111 % of control
T/C (endpoint: median survival time, dose: 45.0 mg/kg/injection, schedule: Q01DX009 (ip), vehicle: saline): 161 % of control and 185 % of control
T/C (endpoint: median survival time, dose: 90.0 mg/kg/injection, schedule: Q01DX009 (ip), vehicle: saline): 188 % of control and 207 % of control

CCCCCCC[CH2][Sn]1([CH2]CCCCCCC)[O]OC(c2ccccc2)[O]1 (stereo not drawn)
T/C (endpoint: mean survival time, dose: 50.0 mg/kg/injection, schedule: Q04DX002 (ip), vehicle: saline with Tween-80): 92 % of control

CSc1nnnn1-c1ccccc1
T/C (endpoint: mean survival time, dose: 50.0 mg/kg/injection, schedule: Q01DX009 (ip), vehicle: Klucel (hydroxypropylcellulose) (HPC)): 111 % of control
T/C (endpoint: mean survival time, dose: 100.0 mg/kg/injection, schedule: Q01DX009 (ip), vehicle: Klucel (hydroxypropylcellulose) (HPC)): 104 % of control

Cc1c(N)nc(C(CC(N)=O)NCC(N)C(N)=O)nc1C(=O)NC(C(=O)NC(C)C(O)CC(=O)NC(C(=O)NC(OC1OC(C)C(N)C(O)C1O)C(O)c1nc(-c2nc(C(=O)NCCCC(N)CC(=O)NCCCNCCCCN)cs2)cs1)C(C)O)C(OC1OC(CO)C(O)C(O)C1OC1OC(CO)C(O)C(OC(N)=O)C1O)c1cnc[nH]1 (stereo not drawn)
T/C (endpoint: mean survival time, dose: 1.0 mg/kg/injection, schedule: Q01DX009 (ip), vehicle: saline): 103 % of control
T/C (endpoint: mean survival time, dose: 2.0 mg/kg/injection, schedule: Q01DX009 (ip), vehicle: saline): 101 % of control
T/C (endpoint: mean survival time, dose: 4.0 mg/kg/injection, schedule: Q01DX009 (ip), vehicle: saline): 104 % of control
T/C (endpoint: mean survival time, dose: 8.0 mg/kg/injection, schedule: Q01DX009 (ip), vehicle: saline): 104 % of control
T/C (endpoint: mean survival time, dose: 16.0 mg/kg/injection, schedule: Q01DX009 (ip), vehicle: saline): 86 % of control

NC(=O)c1c[se]c(C2OC(CO)C(O)C2O)n1 (stereo not drawn)
T/C (endpoint: median survival time, dose: 12.5 mg/kg/injection, schedule: Q01DX009 (ip), vehicle: water): 174 % of control and 187 % of control
T/C (endpoint: median survival time, dose: 25.0 mg/kg/injection, schedule: Q01DX009 (ip), vehicle: water): 170 % of control and 193 % of control
T/C (endpoint: median survival time, dose: 50.0 mg/kg/injection, schedule: Q01DX009 (ip), vehicle: water): 206 % of control and 233 % of control
T/C (endpoint: median survival time, dose: 100.0 mg/kg/injection, schedule: Q01DX009 (ip), vehicle: water): 216 % of control and 233 % of control

COc1cc(Cl)ccc1NC(=O)OCCOc1ccc(C(C)(C)C)cc1
T/C (endpoint: mean survival time, dose: 50.0 mg/kg/injection, schedule: Q01DX009 (ip), vehicle: saline with Tween-80): 103 % of control
T/C [1]: 95 % of control
T/C [2]: 95 % of control

c1ccc([CH2][Pb]([c]2ccccc2)([c]2ccccc2)[c]2ccccc2)cc1
T/C [3]: 100 % of control
T/C [4]: 97 % of control
T/C [5]: 91 % of control

Nc1ccc(OC(=O)c2ccccc2)cc1
T/C (endpoint: mean survival time, dose: 12.5 mg/kg/injection, schedule: Q01DX001 (ip), vehicle: saline with Tween-80): 92 % of control
T/C (endpoint: mean survival time, dose: 12.5 mg/kg/injection, schedule: Q01DX009 (ip), vehicle: saline with Tween-80): 91 % of control
T/C [6]: 90 % of control
T/C (endpoint: mean survival time, dose: 25.0 mg/kg/injection, schedule: Q01DX009 (ip), vehicle: saline with Tween-80): 86 % of control
T/C [7]: 90 % of control

S=C(S)NC1CCCCCCCCCCC1
T/C [3]: 102 % of control
T/C [4]: 100 % of control
T/C [5]: 93 % of control

NNc1nnc(Cl)cc1N
T/C [3]: 109 % of control

S=c1[nH]c2ccccc2nc1NCc1ccccc1
T/C (endpoint: mean survival time, dose: 100.0 mg/kg/injection, schedule: Q04DX003 (ip), vehicle: other): 91 % of control
T/C (endpoint: mean survival time, dose: 200.0 mg/kg/injection, schedule: Q04DX003 (ip), vehicle: other): 93 % of control
T/C (endpoint: mean survival time, dose: 400.0 mg/kg/injection, schedule: Q04DX003 (ip), vehicle: other): 93 % of control

O=C1C(=O)c2cccnc2C(NC2CC3CCC2C3)=C1Cl (stereo not drawn)
T/C (endpoint: mean survival time, dose: 75.0 mg/kg/injection, schedule: Q04DX003 (ip), vehicle: saline): 95 % of control
T/C (endpoint: mean survival time, dose: 150.0 mg/kg/injection, schedule: Q04DX003 (ip), vehicle: saline): 98 % of control
T/C (endpoint: mean survival time, dose: 300.0 mg/kg/injection, schedule: Q04DX003 (ip), vehicle: saline): 97 % of control

Cn1c(=O)c2[nH]c(-c3ccc4c(c3)OCO4)nc2n(C)c1=O
T/C [3]: 89 % of control
T/C [4]: 92 % of control
T/C [5]: 88 % of control

CC(C)(C)C1=CC(=O)C(Cl)(C(C)(C)C)C(Cl)C1=O (stereo not drawn)
T/C [6]: 97 % of control
T/C [7]: 93 % of control

O=CC(CO)OC(C=O)n1ccc(=O)[nH]c1=O (stereo not drawn)
T/C (endpoint: median survival time, dose: 50.0 mg/kg/injection, schedule: Q04DX003 (ip), vehicle: saline): 116 % of control
T/C (endpoint: median survival time, dose: 200.0 mg/kg/injection, schedule: Q04DX003 (ip), vehicle: saline): 178 % of control
T/C (endpoint: median survival time, dose: 400.0 mg/kg/injection, schedule: Q04DX003 (ip), vehicle: saline): 285 % of control
T/C (endpoint: median survival time, dose: 800.0 mg/kg/injection, schedule: Q04DX003 (ip), vehicle: saline): 261 % of control

CC(C)CCOC(=O)Nc1cccc(O)c1
T/C [3]: 98 % of control
T/C [4]: 100 % of control
T/C [5]: 101 % of control

CC(=O)OC1CCCCCCCCCCC12OCCO2 (stereo not drawn)
T/C (endpoint: mean survival time, dose: 100.0 mg/kg/injection, schedule: Q04DX002 (ip), vehicle: other): 104 % of control
T/C (endpoint: mean survival time, dose: 400.0 mg/kg/injection, schedule: Q04DX002 (ip), vehicle: other): 115 % of control

OC1c2ccccc2CCc2ccccc21
T/C (endpoint: mean survival time, dose: 25.0 mg/kg/injection, schedule: Q04DX003 (ip), vehicle: saline with Tween-80): 97 % of control
T/C (endpoint: mean survival time, dose: 50.0 mg/kg/injection, schedule: Q04DX003 (ip), vehicle: saline with Tween-80): 103 % of control
T/C [3]: 101 % of control

CC1CC(=O)C2=C(C1)NC(=O)CC2 (stereo not drawn)
T/C [3]: 90 % of control
T/C [4]: 96 % of control
T/C [5]: 101 % of control
